These results are taken from patent publication US7652038B2, “Methods of reducing angiogenesis” (The Board of Trustees of the Leland Stanford Jr. University, priority 2002, dated 2010).

For experiment [1], the system named is C57BL/6J mice. In words: Disc angiogenesis system. The experiment is classed as in vivo. The note with it: for crosssectional area of the disc covered with new vessels (neovascularization of the disc): systemic treatment via osmotic minipumps, median, control 54.9%. As to the method: Disc Angiogenesis System. A disc of polyvinyl alcohol sponge (Rippey, El Dorado Hills, Calif.), covered with nitrocellulose cell-impermeable filters (Millipore, Burlington, Mass.), allows capillaries to grow only through the rim of the disc. The randomized treatment for the 2-week study period was delivered via osmotic minipumps (0.25 μl/hr; Durect, Cupertino, Calif.). Those discs were subcutaneously implanted in the back of 10-week old C57BL/6J mice or in some experiments in the back of α7-nAChR-deficient (B6.129S7-Chrna7^trn1Bay) mice (n=6 per group; Jackson, Bar Harbor, Me.). Two weeks later, mice were anesthetized and infused with space-filling fluorescent microspheres (0.2 μm, Molecular Probes, Eugene, Oreg.) through the left ventricle of the heart. Both the area of the disc covered with perfused vessels and the vessel density were quantified. Heeschen et al. (2001) Nat Med 7:833-837; and Jang et al. (2000) Circulation 102:1414-1419 (3, 10) The α7-nAChR in growing vessels were identified by immunohistochemistry (Santa Cruz Biotechnology, Santa Cruz, Calif.). To verify the specificity of the staining, discs explanted from homozygous α7-nAChR^−/− mice were used as a negative control.
To determine if the nAChR are involved in the native angiogenesic response in vivo, we used the disc angiogenesis system. In the control group, 54.9% (95% CI 46.1-63.6) of the crosssectional area of the disc was covered with new vessels when the disc was removed three weeks after subcutaneous implantation. FIG. 1.

Experiment [2] deals with Lewis lung carcinoma cells. Briefly: Lewis lung tumor model, subcutaneous. The experiment is classed as in vivo, mice. As to the method:
(§1) Lewis Lung Tumor Model. A total of 10^6 Lewis lung carcinoma cells (ATCC, Manassas, Va.) were cultured in RPMI 1640 supplemented with 10% FBS. Cancer cells were subcutaneously injected into each flank or orthotopically introduced into the lung parenchyma via a limited skin incision without thoracotomy of 10-week old C57BL/6J wild type mice. Animals received mecamylamine (3 mg/kg) or vehicle via osmotic mini pumps. Mice injected subcutaneously with tumor cells were checked on a daily basis for the presence of a palpable tumor and tumor growth was measured with a gauge. Tumor size was calculated as the product of length×width×0.5 cm^3. When mice in any group were bearing tumors>1.5 cm^3, the experiment was stopped and all animals sacrificed for histological evaluation. Tumor vessels were identified by infusion of space-filling fluorescent microspheres (0.2 μm; Molecular Probes) via the left ventricle of the heart.
(§2) The previous studies indicate that nAChR play an important role in angiogenesis in a broad spectrum of experimental conditions. To determine if mecamylamine could influence tumor angiogenesis, we used the in vivo Lewis lung cancer model. […] This late decrease in tumor growth in the mecamylamine group corresponded with a reduced vascularization of the tumor tissue. […] In another experiment, we orthotopically implanted Lewis lung cancer cells into the lung parenchyma. Larger tumors in the control group required discontinuation of the experiment after 17 days (tumor volume of 0.62 cm^3 (95% CI 0.37-0.85) versus 0.45 cm^3 (95% CI 0.28-0.66); P<0.001).

The test system of another experiment is HMVECs and HUVECs. Briefly: In vitro Matrigel assay (capillary network / tube formation). The experiment is classed as cell-based, human. As to the method: In Vitro Matrigel Assay. Human umbilical vein endothelial cells (HUVEC) and human microvascular endothelial cells (HMVEC; up to 5th passage; Bio Whittaker, Walkersville, Md.) were grown in EGM-MV supplemented with 5% FBS, 0.5 ml hEGF, 0.2 ml hydrocortisone, 2.0 ml BBE, and 0.5 ml GA-1000 (Bio Whittaker). Four-well chamber slides were coated with growth factor enhanced Matrigel (Becton Dickinson, Bedford, Mass.) and equilibrated with basal medium. Kureishi et al. (2000) Nat Med 6:1004-1010. Cells were seeded on top of the gel at a density of 10^3 cells/well in fresh basal medium containing 5% FBS. After two hours, increasing concentrations of mecamylamine (10^−12 to 10^−4 M; Sigma, St. Louis, Mont.) or vehicle were added to the medium. Development of tube formation in the center of each well was investigated at 24, 48, and 72 hours. We studied critical steps in angiogenesis, such as migration and differentiation, using an in vitro model of angiogenesis with ECs forming a network of capillary-like structures. After seeding the cells on growth factor-enriched matrigel, HMVECs and HUVECs, respectively, manifested tube formation within 48 hours in response to control medium.

A further experiment relates to CD34+/Flk-1+ cells. In words: FACS of endothelial progenitor cells in hind limb ischemia model. The experiment is classed as in vivo, mice. Conditions: systemic administration. As to the method: FACS. Fluorescence-activated cell sorting was used to identify the cellular population mobilized by ischemia and ischemia plus mecamylamine, respectively. At each time point (baseline, 3, 7, 14 days), blood was obtained from the right atrium. Bone marrow was isolated from bilateral femurs and tibias of each animal and incubated in HBSS (1% FCS) on ice. Peripheral blood and bone marrow cells were incubated with fluorescent-labeled antibodies and analyzed with a FACS-Vantage flow cytometer (Becton Dickinson, Franklin Lakes, N.J.). FITC-conjugated antibody against mouse CD34 and PE-conjugated antibody against mouse Flk-1 (BD PharMingen, San Diego, Calif.) were used as endothelial lineage markers. The analysis of CD34+ and Flk-1+ cells was performed after gating for monocyte size. Biotinylated antibodies against MAC-1 (BD PharMingen) conjugated to Avidin-Texas Red (BD PharMingen) were used as a monocyte/macrophage lineage marker after gating for monocyte cell size with the exclusion of granulocytes that were marked by Ly-6G GR-1 against mouse conjugated to APC (BD PharMingen). […] Data were analyzed using FloJo software (Becton Dickinson).
Table 1 presents the data, expressed as percentage of endothelial progenitor cells in bone marrow (BM) and peripheral blood (PB) before and after ligation of the femoral artery in the murine model of hind limb ischemia.

Experiment [3] has as its system C57BL/6J mice. In words: Murine model of hind limb ischemia. Type of experiment: in vivo. The note with it: for median diameter of collateral vessels / number of collateral vessels: ischemic limb; for median diameter of collateral vessels: control 0.12 mm; for number of collateral vessels: control 7.5. As to the method:
Murine Model of Hind Limb Ischemia. In 10-week old C57BL/6J mice, the distal end of the external iliac artery and the deep and superficial femoral artery were ligated (n=8 animals per group). Mecamylamine was administered for three weeks by daily intramuscular injection. Serum VEGF levels were determined with a mouse VEGF ELISA kit (R&D System, Minneapolis, Minn.). Capillary density was determined in the adductor and semimembranous muscles. In 10 μm cryostat sections, cut transverse to the mid-belly of the muscle, capillaries were identified by monoclonal antibodies against CD31 (BD PharMingen, San Diego, Calif.) and myocytes were counterstained with eosin (Sigma). Capillary density for each section was determined in ten randomly selected fields and is expressed as a ratio of capillaries to myocytes.
To determine if nAChR play an important role in the setting of angiogenesis in response to ischemia, we employed the murine model of hind limb ischemia. After unilateral ligation of the superficial and deep femoral artery, we administered mecamylamine or vehicle by intramuscular injections into the ischemic hind limb on a daily basis for a period of three weeks. Animals (each group n=8) received 0, 0.05, or 0.5 μg/kg of mecamylamine. […] We achieved similar results when we administered mecamylamine systemically via osmotic minipumps (5.0 μg/kg; 0.24 (95% CI 0.19-0.28); P<0.001).
Accordingly, we identified collaterals by double staining for CD31 (ECs) and α-actin (SMCs) using confocal microscopy. The number of collaterals was quantified on cross-sections by identifying vascular lumen lined by CD31-positive endothelium, that were coated by an actin-positive vascular smooth muscle wall, with vessel diameters of at least 0.02 mm.

The test system of experiment [4] is Lewis lung carcinoma cells. In words: Lewis lung tumor model, orthotopic implantation into lung parenchyma. Type of experiment: in vivo, mice. As to the method:
as §1, §2

A further experiment relates to Lewis lung cancer cells. Briefly: Cell culture of Lewis lung cancer cells: proliferation and apoptosis during hypoxia. Type of experiment: cell-based. The text has this:
In subsequent cell culture experiments, we investigated whether this reduced tumor growth may also be related to a direct anti-proliferative effect of mecamylamine on the cancer cells. […] We also investigated the effects of increasing mecamylamine concentrations on the percentage of cells undergoing apoptosis during hypoxia using flow cytometry.

With `C[N+](C)(C)CCCCCC[N+](C)(C)C` [hexamethonium], the “crosssectional area of the disc covered with new vessels (neovascularization of the disc)” value with C57BL/6J mice [1] was determined as 11.5%.

Consider `CNC1(C)C2CCC(C2)C1(C)C` (stereo not shown) [mecamylamine], for which the “tumor growth (tumor size)” value in experiment [2] (21-day follow-up, control 1.21) amounted to 0.85 cm^3. In experiment [2] (Lewis Lung tumor model), the “advanced tumor growth (FIG. 5)” value is reported as “significantly less tumor growth”. Besides, the “capillary density of tumor tissue” value in experiment [2] (subcutaneous tumor, control 0.82) was 0.56 capillaries/mm^2. Further, in the experiment with HMVECs and HUVECs (10^−6 M, treatment stopped after 36 hours, network-like structures at 72 hours), the “reversibility of effect on network formation” value was “reversible”. Moreover, in the experiment on HMVECs and HUVECs (medium supplemented with 10^−4 to 10^−12 M, growth factor-enriched matrigel), the “network formation (tube formation)” value is “network formation was inhibited”. Also, the “number of CD34+/Flk-1+ cells in the bone marrow” value in the experiment on CD34+/Flk-1+ cells is on record as “reduced the number of CD34^+/Flk-1^+ cells in the bone marrow”. In the experiment with C57BL/6J mice [1] (disc angiogenesis system), the “angiogenesis in vivo (FIG. 1)” value is recorded as “inhibits angiogenesis in vivo”. The “crosssectional area of the disc covered with new vessels (neovascularization of the disc)” value in the experiment on C57BL/6J mice [1] worked out at 14.3%. The “capillary density (angiogenic response)” value in the experiment with C57BL/6J mice [3] (0.5 μg/kg daily intramuscular injection into ischemic hind limb, 3 weeks, control 0.45) is listed as 0.26 capillaries/myocyte; with C57BL/6J mice [3] (systemically via osmotic minipumps, 5.0 μg/kg), 0.24 capillaries/myocyte. Also, the “median diameter of collateral vessels” value in the experiment with C57BL/6J mice [3] (high dose) was 0.07 mm; in the experiment on C57BL/6J mice [3] (low dose), 0.09 mm. In addition, the “number of collateral vessels” value in the experiment on C57BL/6J mice [3] (high dose) turned out to be 6.2; with C57BL/6J mice [3] (low dose), 7.1. The “capillary density compared to control (FIG. 3)” value in the experiment with C57BL/6J mice [3] (murine model of hind limb ischemia) was “decreased capillary density in a dose-dependent fashion”. Also, in experiment [4] (Lewis lung cancer model, control 152.2), the “systemic levels of VEGF” value was 78.7 pg/mL. The compound further registered a tumor volume in experiment [4] (orthotopic, after 17 days, control 0.62) of 0.45 cm^3. The same compound displayed a tumor vascularization in experiment [4] (orthotopic, control 1.56) of 0.98 capillaries/mm^2. Moreover, in the experiment on Lewis lung cancer cells (10^−6 M during hypoxia, control 13%), the “cells positive for Annexin V” value is listed as 12%. In addition, the “percentage of cells undergoing apoptosis during hypoxia” value in the experiment with Lewis lung cancer cells (increasing concentrations, flow cytometry, versus control group) is reported as “no difference was observed”. The “number of Lewis lung cancer cells (direct anti-proliferative effect)” value in the experiment on Lewis lung cancer cells (up to 48 hours of treatment) is given as “did not observe a significant change”.
